From patent publication EP1209158A1, “Substituted beta-carbolines” (Aventis Pharma Deutschland GmbH, priority 2000, dated 2002) come the findings set out here.

Counter-ions that a name gives are not always drawn.

One assay addresses T1, IκBα-kinase complex (Homo sapiens, UniProt O14920+O15111).
T1 construct: IKBα kinase complex was prepared by first diluting 10 mL of HeLa S3 cell-extracts S100 fraction; endogenous in cells; host or cells: HeLa S3 (S100 fraction, 40% ammonium sulfate cut, Superose-6 fractions at about 670 kDa)
Kind of assay: biochemical. The following applies: activated kinase complex from HeLa S3 cell-extracts S100 fraction; 30 minutes pre-incubation at 25°C; biotinylated peptide substrate; read-out: IkB-kinase IC50.

Assay [1] has as its system mouse heterotopic cardiac transplant (BALB/c->C57BL/6 or B6/129). The assay can be described thus: Mouse heterotopic cardiac transplant model. Format: in vivo. Conditions: oral administration, 25 mg/kg/day for 14 days, starting at transplantation. The text has this: In the mouse heterotopic cardiac transplant model across full histocompatibility barriers (BALB/c->C57BL/6 or B6/129), graft survival is typically limited to 7.3 ± 0.4 days (mean ± SD, […]) (see for example in Hancock WW, Sayegh MH, Zheng XG, Peach R, Linsley PS, Turka LA. Costimulatory function and expression of CD40-ligand, CD80 and CD86 or in vascularized murine cardiac allograft rejection. Proc Natl Acad Sci (USA) 93, 1996, 13967-13972; and Hancock W W, Buelow R, Sayegh MH, Turka LA. Antibody-induced transplant arteriosclerosis is prevented by graft expression of antioxidant and anti-apoptotic genes. Nature Med 4, 1998, 1392-1396).
The effects of oral administration of the compounds according to examples 49 and 60 were tested using 25 mg/kg/day for 14 days, starting at transplantation in said animal model. Whereas grafts in animals receiving the carrier, methylcellulose, rejected by 7 days (6.7 ± 0.8), grafts in compound 49-treated mice survived around 15 days (15.3 ± 0.6), and grafts in those given compound 60 survived for 20 days (20 ± 1). Current immunosuppressive therapies used in transplantation have limited efficacy and/or considerable toxicity.

T1 sequence (O14920 whole entry): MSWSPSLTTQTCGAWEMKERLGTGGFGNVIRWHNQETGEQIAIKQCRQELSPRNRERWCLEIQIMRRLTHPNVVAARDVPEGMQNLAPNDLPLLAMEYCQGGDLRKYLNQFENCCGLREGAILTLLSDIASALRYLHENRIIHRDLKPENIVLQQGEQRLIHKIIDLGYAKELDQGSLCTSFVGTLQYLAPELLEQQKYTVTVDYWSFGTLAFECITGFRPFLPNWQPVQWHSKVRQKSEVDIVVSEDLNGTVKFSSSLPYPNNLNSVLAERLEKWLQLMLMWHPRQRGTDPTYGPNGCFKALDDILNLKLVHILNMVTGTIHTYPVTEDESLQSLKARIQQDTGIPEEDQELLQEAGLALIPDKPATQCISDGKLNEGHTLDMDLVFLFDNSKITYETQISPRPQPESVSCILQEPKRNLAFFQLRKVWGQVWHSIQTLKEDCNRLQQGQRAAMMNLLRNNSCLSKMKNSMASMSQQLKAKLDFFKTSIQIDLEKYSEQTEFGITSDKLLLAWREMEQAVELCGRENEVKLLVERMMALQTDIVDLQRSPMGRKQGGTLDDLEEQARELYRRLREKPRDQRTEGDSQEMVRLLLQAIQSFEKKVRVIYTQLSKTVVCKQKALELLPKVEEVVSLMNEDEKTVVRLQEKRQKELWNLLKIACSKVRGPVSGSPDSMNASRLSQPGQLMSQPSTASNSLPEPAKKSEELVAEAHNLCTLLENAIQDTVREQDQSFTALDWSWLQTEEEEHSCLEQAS
T1 sequence (O15111 whole entry): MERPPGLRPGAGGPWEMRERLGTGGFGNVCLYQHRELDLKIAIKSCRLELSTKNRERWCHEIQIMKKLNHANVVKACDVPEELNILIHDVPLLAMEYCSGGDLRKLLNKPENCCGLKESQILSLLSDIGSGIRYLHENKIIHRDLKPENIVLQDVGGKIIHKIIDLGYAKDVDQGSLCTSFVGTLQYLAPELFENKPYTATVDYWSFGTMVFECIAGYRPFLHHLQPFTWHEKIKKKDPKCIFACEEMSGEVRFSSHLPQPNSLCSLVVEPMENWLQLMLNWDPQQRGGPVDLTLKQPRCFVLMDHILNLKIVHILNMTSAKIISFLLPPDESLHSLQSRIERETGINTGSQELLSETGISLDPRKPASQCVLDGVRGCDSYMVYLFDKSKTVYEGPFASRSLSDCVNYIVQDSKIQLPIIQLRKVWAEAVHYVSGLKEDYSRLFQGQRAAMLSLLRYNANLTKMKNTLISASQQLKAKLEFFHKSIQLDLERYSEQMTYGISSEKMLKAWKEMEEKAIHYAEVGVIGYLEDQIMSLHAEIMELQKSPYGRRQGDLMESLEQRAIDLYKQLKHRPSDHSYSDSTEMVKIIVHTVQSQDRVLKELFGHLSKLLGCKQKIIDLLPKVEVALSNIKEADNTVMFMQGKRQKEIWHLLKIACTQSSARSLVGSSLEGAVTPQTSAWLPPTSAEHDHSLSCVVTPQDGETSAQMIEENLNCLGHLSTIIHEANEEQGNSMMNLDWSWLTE
T1 sequence (Q9Y6K9 whole entry partner): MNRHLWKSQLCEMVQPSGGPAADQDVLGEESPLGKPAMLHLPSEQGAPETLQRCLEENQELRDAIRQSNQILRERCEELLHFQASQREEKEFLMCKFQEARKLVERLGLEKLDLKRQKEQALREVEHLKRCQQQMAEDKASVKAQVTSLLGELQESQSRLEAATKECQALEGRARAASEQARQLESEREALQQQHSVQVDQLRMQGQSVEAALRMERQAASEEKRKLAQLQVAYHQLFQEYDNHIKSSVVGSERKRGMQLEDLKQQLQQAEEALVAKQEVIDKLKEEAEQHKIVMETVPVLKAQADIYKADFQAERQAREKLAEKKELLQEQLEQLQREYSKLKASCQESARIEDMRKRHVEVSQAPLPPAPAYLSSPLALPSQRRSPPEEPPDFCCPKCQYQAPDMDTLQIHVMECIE

Broadly, the IC50 is the concentration needed to halve the response being measured. As to `Fc1c(Cl)ccc2c1[nH]c1cnccc12` [Example 34, 7-chloro-8-fluoro-β - carboline], the IC50 at IκBα-kinase complex was found to be 1 µM. Same read-out and setting: as for `COc1ccc2c(c1)[nH]c1c(C)nccc12` [Example 35, 7-methoxy-1-methyl-β - carboline], the figure is 3.5 µM. Take `O=C(Nc1cc(Cl)cc2c1[nH]c1cnccc12)c1cccnc1` [Example 60, N-(6-Chloro-9H-β-carbolin-8-yl)-nicotinamide]: in assay [1], the graft survival is 20 ± 1 days. Regarding `CC(=O)c1nccc2c1[nH]c1cc(Cl)ccc12` [Example 13, 1-acetyl-7-chloro-β - carboline], on IκBα-kinase complex, the half-maximal inhibitory concentration (IC50) was found to be 0.5 µM. For `Brc1ccc2c3ccncc3n(Br)c2c1` [Example 8, 7,9-dibromo-β - carboline hydrochloride], on IκBα-kinase complex, the concentration for half-maximal inhibition (IC50) came out at 0.2 µM.

Take `O=[N+]([O-])c1ccc2c(c1)[nH]c1cnccc12` [Example 6, 7-nitro-β-carboline hydrochloride]: the half-inhibitory concentration (IC50) on IκBα-kinase complex was 3 µM. Regarding `CC(C)c1ccc2c(c1)[nH]c1cnccc12` [Example 4, 7-isopropyl-β -carboline hydrochloride], the IC50 at IκBα-kinase complex was 2.5 µM. Still for that read-out and setting: for “7-chloro-9-(methylamino)-β-carboline trifluoroacetate [Example 43]” the value was 1 µM; for `Clc1ccc2c3ccncc3n(Cl)c2c1` [Example 9, 7,9-dichloro-β-carboline], 0.2 µM. Take `Cn1ccc2c3cccc(O)c3nc-2c1` [Example 23, 8-hydroxy-2-methyl-β-carboline]: the IC50 at IκBα-kinase complex was 22 µM.

Regarding “7-chloro-9-(Acetyl-methylamino)-β-carboline trifluoroacetate [Example 48]”, at IκBα-kinase complex, the IC50 was 4 µM. As to `Oc1nccc2c1[nH]c1cc(C(F)(F)F)ccc12` [Example 41, 1-hydroxy-7-trifluoromethyl-β-carboline], the IC50 on IκBα-kinase complex worked out at 2.2 µM. Same read-out and setting: for `CC(=O)c1nccc2c1[nH]c1cc(Br)ccc12` [Example 2, 1-acetyl-7-bromo-β-carboline] the value was 0.4 µM. Still for that read-out and setting: as for `Fc1ccc2c(c1)[nH]c1cnccc12` [Example 3, 7-fluoro-β-carboline], the figure is 1 µM; as for `O=C(O)c1ccc2c(c1)[nH]c1cnccc12` [Example 7, 7-carboxy-β-carboline trifluoroacetat], 65 µM. In turn, “7-chloro-9-(4-fluorobenzoylamino)-β-carboline trifluoroacetate [Example 49]” gave a graft survival in assay [1] of 15.3 ± 0.6 days.

For `N#Cc1ccc2c(c1)[nH]c1cnccc12` [Example 5, 7-cyano-β-carboline], the concentration for half-maximal inhibition (IC50) at IκBα-kinase complex came to 1 µM. `Nn1c2cnccc2c2ccc(Cl)cc21` [Example 15, 9-amino-7-chloro-β-carboline]: the half-maximal inhibitory concentration (IC50) at IκBα-kinase complex came out at 0.8 µM.

In the case of `COc1ccc2c(c1)[nH]c1cnccc12` [Example 30, 7-methoxy-β - carboline], the half-maximal inhibitory concentration (IC50) at IκBα-kinase complex turned out to be 5.2 µM.

For `O=[N+]([O-])n1c2cnccc2c2ccc(Cl)cc21` [Example 14, 7-chloro-9-nitro-β-carboline], the IC50 on IκBα-kinase complex was 4 µM. The same measure, in the same setting: as for `FC(F)(F)c1ccc2c(c1)[nH]c1cnccc12` [Example 42, 7-trifluoromethyl-β-carboline], the figure is 0.8 µM.
